In brackets after ≈: the same amount, converted by molar mass. Like-named read-outs stand apart in the source and are kept apart here. One block for each compound: values may come before it.
Key:
[1] = test system: strain IIIB of HIV-1; experiment: Inhibition of HIV-1 replication in MT4 cells, MTT assay; format: cell-based; conditions: Human immunodeficiency virus 1, IIIB
Description: The enhancing effect of compound 3 on anti-viral agents was studied by checkerboard combination studies exposing HIV infected cells to 0-3 μM anti-viral agent in the absence or presence of compound 3 in concentrations from 0 to 6 μM. Each experiment was repeated in tripleduplicate. MIC values represent the mean values of two separate experiments.
The HIV-1 strain HTLV-IIIB were propagated in H9 cells at 37° C., 5% CO2 using RPMI 1640 with 10% heat-inactivated foetal calf serum (FCS) and antibiotics (growth medium). Culture supernatant was filtered ([…]), aliquotted, and stored at −80° C. until use. The HIV-1 strain was obtained from NIH AIDS Research and Reference Program.
(§1) Compounds were examined for possible antiviral activity against strain IIIB of HIV-1 using MT4 cells as target cells. MT4 cells were incubated with virus (0.005 MOI) and growth medium containing the test dilutions of compound(s) for six days in parallel with virus-infected and uninfected control cultures without compound added. Expression of HIV in the cultures was indirectly quantified using the MTT assay as previously described. Compounds mediating less than 30% reduction of HIV expression were considered without biological activity. Compounds were tested in parallel for cytotoxic effect in uninfected MT4 cultures containing the test dilutions of compound as described above. Cultures for test of both antiviral activity and cytotoxic effect were set up in tripleduplicates, […] per culture in micro titre plates. A 30% inhibition of cell growth relative to control cultures was considered significant. The 50% inhibitory concentration was determined by interpolation from the plots of percent inhibition versus concentration of compound.
EC50 is defined as the effective concentration that inhibits 50% of viral production, 50% of viral infectivity, or 50% of the virus-induced cytopathic effect.

[2] = test system: MT4 cells; experiment: Cytotoxic effect in uninfected MT4 cultures; format: cell-based; conditions: read-out: CC50 A + C3 (1 μM); AZT in presence of compound 3 at 1 μM
Description: as §1
(§2) CC50 is defined as the inhibitory concentration that reduces cellular growth or viability of uninfected cells by 50%.

[3] = Cytotoxic effect in uninfected MT4 cultures; format: cell-based; conditions: human, uninfected MT4 cells; single agent; uninfected MT4
Description: as §1, §2

[4] = test system: E. coli MDR clinical isolates; experiment: FIC index, synergy with antibiotics (Table 4a); format: cell-based; conditions: 8 MDR E. coli, mean, compound at ¼ of MIC
Description: (§3) The effect of the compounds was tested according to the methods described in WO2005/105145. In brief, cell growth was tested using the MIC susceptibility tests by use of the microdilution broth method in accordance to the NCCLS Guidelines (NCCLS Guidelines, Methods for Dilution Antimicrobial Susceptibility Tests for Bacteria That Grow Aerobically; Approved Standard, Sixth Edition, Volume 23; Number 2).
(§4) The Fractional Inhibitory Concentration (FIC) index were calculated for each compound as described in WO2005/105145. Synergy was defined for Fractional Inhibitory Concentration (FIC) indices less than 0.5
E. coli: 8 in vivo-selected multidrug resistant clinical isolates of E. coli. Resistant to tetracycline, beta-lactams, fluoroquinolones, chloramphenicol and aminoglycoside

[5] = test system: S. aureus; experiment: MIC, microdilution broth, multiresistant clinical isolates (Table 1A); format: cell-based; conditions: Staphylococcus aureus; ten multiresistant clinical isolates; read-out: Median MIC S. aureus
Description: (§5) Cell growth was tested using the Minimal Inhibitory Concentration (MIC) susceptibility tests by use of the microdilution broth method in accordance to the NCCLS Guidelines (NCCLS Guidelines, Methods for Dilution Antimicrobial Susceptibility Tests for Bacteria That Grow Aerobically; Approved Standard, Sixth Edition, Volume 23; Number 2). The minimum inhibitory concentration (MIC), is defined as the lowest concentration of drug which inhibits growth of the test organism, in the sense that no visible growth is detected (total inhibition of growth). In example 2, MIC of the compounds used on fungal microorgansims was determined from the IC90 measurements according to NCCLS Guidelines.
(§6) A log phase culture of bacteria was diluted with fresh pre-warmed Mueller-Hinton medium and adjusted to a defined OD at 600 nm in order to give a final concentration of 1×10^4-5 bacteria/ml medium. The bacterial culture was transferred to microtiter-plates and culture was added to each well. […] Trays were incubated at 37° C. by shaking in a robot analyzer, PowerWavex, software KC^4′ Kebo. Lab, Copenhagen, for 16 h and optical densities were measured at 600 nm during the incubation time in order to record growth curves. Wells containing bacterial culture without drug were used as controls to ensure correct inoculum size and bacterial growth during the incubation. Cultures were tested in order to detect contaminations. Each experiment was repeated in triplicate.
(§7) Ten strains in each test group.

[6] = test system: E. faecalis; experiment: as above; format: cell-based; conditions: Enterococcus faecalis; ten multiresistant clinical isolates; read-out: Median MIC E. faecalis
Description: as §5, §6, §7

[7] = test system: S. epidermidis; experiment: as above; format: cell-based; conditions: Staphylococcus epidermidis; ten multiresistant clinical isolates; read-out: Median MIC S. epidermidis
Description: as §5, §6, §7

[8] = test system: E. coli; experiment: as above; format: cell-based; conditions: Escherichia coli; ten multiresistant clinical isolates; read-out: Median MIC E. coli
Description: as §5, §6, §7

[9] = test system: E. faecium; experiment: as above; format: cell-based; conditions: Enterococcus faecium; ten multiresistant clinical isolates; read-out: Median MIC E. faecium
Description: as §5, §6, §7

[10] = test system: Multiresistant clinical isolates E. coli; experiment: Maximal reversal of resistance and synergistic effect (Table 4c); format: cell-based; conditions: E. coli multiresistant isolates
Description: The maximal obtained reversal of resistance and synergistic effect was tested as previously described.
Strains: Multiresistant clinical isolates E. coli, Ten strains in each group.

[11] = test system: E. faecalis MDR/VRE clinical isolates; experiment: FIC index, synergy with antibiotics (Table 4a); format: cell-based, Enterococcus faecalis; conditions: 8 MDR/VRE E. faecalis, mean, compound at ¼ of MIC
Description: as §3, §4
Enterococcus faecalis: 8 multidrug resistant in vivo-selected clinical isolates. […] Expressing change in the cell wall precursor target as a major resistance mechanism (VanA gene expression).

[12] = test system: S. aureus MRSA clinical isolates; experiment: FIC index, synergy with antibiotics (Table 4a); format: cell-based, Staphylococcus aureus; conditions: with Dicloxacillin; 8 MRSA; mean; compound at ¼ of MIC
Description: as §3, §4
Staphylococcus aureus: 8 (MRSA) in vivo-selected clinical isolates. Resistant to methicillin and beta-lactam antibiotics. Susceptible to teicoplanin chloramphenicol, fosfomycin, netilmicin and vancomycin.

[13] = test system: Candida species; experiment: MIC on clinical isolates of Candida species, broth microdilution NCCLS M27-A (Table 3); format: cell-based; conditions: Candida species incl. fluconazole resistant; MIC = 90% growth inhibition
Description: The antibacterial effect of demethylated/dealkylated phenothiazine or thioxanthene compounds were studied by growth inhibition studies exposing cells to 0-32 μg/ml of drug. Each experiment was repeated in triplicate. MIC values represent the mean values of two separate triplicate experiments.
4 clinical isolates of Candida species (including 3 fluconazole resistant isolates) were subcultured for 24 h on Sabouraud glucose agar before susceptibility testing. Broth microdilution tests were performed according to NCCLS document M27-A (Ref: National Commitee for Clinical Laboratory Standards. (1997). Reference Method for Broth Dilution Antifungal Susceptibility Testing of Yeasts: Approved Standard M27-A. NCCLS, Wayne, Pa.). Microtitre plates were read spectrophotometrically at 530 nm, after mixing the wells by pipetting to resuspend yeast sediments. In this experiment, the MIC was defined as the lowest drug dilution resulting in 90% growth inhibition.

[14] = test system: Candida albicans; experiment: Synergy with fluconazole, broth microdilution NCCLS M27-A (Table 10); format: cell-based
Description: The isolates were subcultured for 24 h on Sabouraud glucose agar before susceptibility testing. Broth microdilution tests were performed according to NCCLS document M27-A (Ref: National Commitee for Clinical Laboratory Standards. (1997). Reference Method for Broth Dilution Antifungal Susceptibility Testing of Yeasts: Approved Standard M27-A. NCCLS, Wayne, Pa.) Microtitre plates were read spectrophotometrically at 530 nm, after mixing the wells by pipetting to resuspend yeast sediments. […] The Fractional Inhibitory Concentration (FIC) was calculated for the anti-infective agent alone and in combination with compound 3 and 4 (see table 4) as described above. Synergy was defined as a FIC index of <0.5.

[15] = test system: Gram negative sp.; experiment: MIC on multiresistant and susceptible clinical isolates (Table 1b); format: cell-based; conditions: 8 multiresistant and 8 susceptible isolates
Description: as §5
(§8) A log phase culture of bacteria was diluted with fresh pre-warmed Mueller-Hinton medium and adjusted to a defined OD at 600 nm in order to give a final concentration of 1×10^4-5 bacteria/ml medium. The bacterial culture was transferred to microtiter-plates and culture was added to each well. Drug was added to the bacterial culture in the wells as two-fold dilution series of drug in order to give final concentrations ranging from 0.03 to 128 μg/ml. Trays were incubated at 37° C. by shaking in a robot analyzer, PowerWavex, software KC^4′ Kebo. Lab, Copenhagen, for 16 h and optical densities were measured at 600 nm during the incubation time in order to record growth curves. Wells containing bacterial culture without drug were used as controls to ensure correct inoculum size and bacterial growth during the incubation. Cultures were tested in order to detect contaminations. Each experiment was repeated in triplicate. MIC values represent the mean values of two separate triplicate experiments. Intra- and interassay variation was <5%.
(§9) Clinically relevant human bacterial isolates of Staphylococci, Streptococci, Micrococci and Gram negative species was cultured and assayed as described above for susceptibility towards the compounds listed in table 1b.

[16] = test system: Staphylococci, Micrococci. Including MRSA; experiment: as above; format: cell-based; conditions: Micrococci incl. MRSA, 8 multiresistant and 8 susceptible isolates
Description: as §5, §8, §9

[17] = test system: Streptococci; experiment: as above; format: cell-based; conditions: 8 multiresistant and 8 susceptible isolates
Description: as §5, §8, §9

[18] = test system: Enterococci sp.; experiment: MIC on multiresistant and susceptible clinical isolates of Enterococci (Table 2); format: cell-based, Enterococcus faecalis and Enterococcus faecium; conditions: 8 multiresistant (VanA, VanB, HLAR, BLR,CR) and 8 susceptible isolates
Description: as §5
as §8, with “Wells containing bacterial culture without drug were used as controls to ensure correct inoculum size and bacterial growth during the incubation. Cultures were tested in order to detect contaminations. Each experiment was repeated in triplicate. MIC values represent the mean values of two separate triplicate experiments. Intra- and interassay variation was <5%.” left out

SMILES: Cc1cn([C@H]2C[C@H](N=[N+]=[N-])[C@@H](CO)O2)c(=O)[nH]c1=O [AZT, 3′-Azido-3′-deoxythymidine]
- EC50 ([1]; 144 h, single agent, MT4 cells, six days, read-out: EC50): 0.05 µM
- EC50 ([1]; MT4, read-out: EC50 A + C3 (1 μM), AZT in presence of compound 3 at 1 μM): 0.01 µM
- CC50 [2]: > 3 µM
- CC50 at 6 days [3]: > 3 µM

- MIC [5]: 8 mg/L (≈ 20 µM)
- MIC [6]: 1 mg/L (≈ 2.49 µM)
- MIC [7]: 8 mg/L (≈ 20 µM)
- MIC [8]: 16 mg/L (≈ 39.9 µM)
- MIC [9]: 1 mg/L (≈ 2.49 µM)
SMILES: OCCN1CCN(CC/C=C2\c3ccccc3Sc3ccc(Cl)cc32)CC1 [Compound 2, trans-clopentixol]
- FIC index ([4]; with Ampicillin): 0.47
- FIC index ([4]; with Ciprofloxacin): 0.44
- FIC index ([4]; with Gentamycin): 0.44
- FIC index ([4]; with Tetracycline): 0.47
- Maximal reversal of resistance: concentration of compound [10]: 2.0 µg/mL
- FIC index ([11]; with Ciprofloxacin): 0.47
- FIC index ([11]; with Dicloxacillin): 0.47
- FIC index [12]: 0.37

SMILES: OCCN1CCC(CC/C=C2\c3ccccc3Sc3ccc(Cl)cc32)CC1 [Compound 4]
- MIC Mean (range) [13]: 1.5 (0.125-2.0) μ/ml
- MIC ([14]; Candida albicans, compound alone, read-out: MIC Compound): 1.5 mg/L
- FIC index ([14]; in combination with fluconazole): 0.39
- FIC index ([4]; with Ampicillin): 0.44
- FIC index ([4]; with Ciprofloxacin): 0.47
- FIC index ([4]; with Gentamycin): 0.47
- FIC index ([4]; with Tetracycline): 0.44
- MIC Mean [15]: 3 mg/L (≈ 7.5 µM)
- MIC Mean [16]: 1 mg/L (≈ 2.5 µM)
- MIC Mean [17]: 1 mg/L (≈ 2.5 µM)
- MIC Mean (range) [18]: 0.5 (0.125-1.0) μ/ml
- FIC index ([11]; with Ciprofloxacin): 0.34
- FIC index ([11]; with Dicloxacillin): 0.34
- FIC index [12]: 0.34

Source: patent US8604059B2, “Thioxanthene derivatives for the treatment of infectious diseases” (BKG Pharma APS, priority 2009, dated 2013)
